According to ChEMBL document CHEMBL1201862, “PubChem BioAssay data set” (2004):
The source made the active and inactive calls.

Legend:
Exodeoxyribonuclease V = biological target: T1, Exodeoxyribonuclease V (Escherichia coli (strain K12), UniProt P04993+P07648+P08394); experiment: RecBCD inhibition via phage-restricted bacterial growth – absorbance, V66 E. coli, mutant T4 phage, counter-screen for AddAB inhibitor project, dose response (AID 492957); type: functional, cell-based, Escherichia coli str. K-12 substr. MG1655
T1 sequence (P04993 whole entry): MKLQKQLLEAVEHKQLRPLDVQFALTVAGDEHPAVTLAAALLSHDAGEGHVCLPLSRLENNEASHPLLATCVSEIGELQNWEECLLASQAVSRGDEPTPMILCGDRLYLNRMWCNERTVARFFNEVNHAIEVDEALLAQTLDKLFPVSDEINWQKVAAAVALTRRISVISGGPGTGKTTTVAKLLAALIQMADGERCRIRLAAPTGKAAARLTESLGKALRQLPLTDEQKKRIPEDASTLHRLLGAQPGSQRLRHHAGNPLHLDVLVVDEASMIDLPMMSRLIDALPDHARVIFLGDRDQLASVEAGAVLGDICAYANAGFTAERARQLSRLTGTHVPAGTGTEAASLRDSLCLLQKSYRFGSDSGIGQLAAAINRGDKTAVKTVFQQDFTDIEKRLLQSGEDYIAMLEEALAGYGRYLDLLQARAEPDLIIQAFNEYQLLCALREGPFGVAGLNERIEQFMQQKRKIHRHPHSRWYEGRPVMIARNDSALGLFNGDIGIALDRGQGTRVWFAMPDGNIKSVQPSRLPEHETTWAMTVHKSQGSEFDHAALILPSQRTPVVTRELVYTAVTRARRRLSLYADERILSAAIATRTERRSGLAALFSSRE
T1 sequence (P07648 whole entry): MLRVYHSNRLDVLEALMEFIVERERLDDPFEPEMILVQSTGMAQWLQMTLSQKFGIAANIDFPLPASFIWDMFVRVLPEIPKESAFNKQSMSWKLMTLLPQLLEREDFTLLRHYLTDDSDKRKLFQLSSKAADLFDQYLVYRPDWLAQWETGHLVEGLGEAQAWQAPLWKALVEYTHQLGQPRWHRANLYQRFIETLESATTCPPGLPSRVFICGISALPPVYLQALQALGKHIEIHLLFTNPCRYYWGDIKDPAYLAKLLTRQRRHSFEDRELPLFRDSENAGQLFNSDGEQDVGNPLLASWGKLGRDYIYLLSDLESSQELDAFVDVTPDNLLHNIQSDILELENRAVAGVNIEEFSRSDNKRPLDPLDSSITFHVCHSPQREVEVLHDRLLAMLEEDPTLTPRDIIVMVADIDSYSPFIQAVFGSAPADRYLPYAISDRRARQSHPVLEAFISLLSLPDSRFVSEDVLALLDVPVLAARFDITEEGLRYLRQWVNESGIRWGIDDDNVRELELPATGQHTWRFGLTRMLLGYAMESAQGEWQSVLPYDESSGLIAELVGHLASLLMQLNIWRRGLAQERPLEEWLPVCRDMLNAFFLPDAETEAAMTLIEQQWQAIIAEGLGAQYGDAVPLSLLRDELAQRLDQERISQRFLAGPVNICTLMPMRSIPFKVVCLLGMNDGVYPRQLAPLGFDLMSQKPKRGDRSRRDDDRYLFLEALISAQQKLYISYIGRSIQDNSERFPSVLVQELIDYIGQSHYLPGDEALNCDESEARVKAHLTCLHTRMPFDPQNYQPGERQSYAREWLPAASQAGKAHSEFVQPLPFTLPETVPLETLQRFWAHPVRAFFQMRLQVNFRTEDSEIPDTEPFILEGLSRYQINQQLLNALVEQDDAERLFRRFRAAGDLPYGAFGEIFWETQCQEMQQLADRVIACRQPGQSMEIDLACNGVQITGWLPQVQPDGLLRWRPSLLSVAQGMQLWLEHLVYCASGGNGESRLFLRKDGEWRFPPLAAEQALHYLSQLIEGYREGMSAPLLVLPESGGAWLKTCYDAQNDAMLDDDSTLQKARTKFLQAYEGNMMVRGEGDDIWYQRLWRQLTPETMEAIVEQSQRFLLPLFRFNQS
T1 sequence (P08394 whole entry): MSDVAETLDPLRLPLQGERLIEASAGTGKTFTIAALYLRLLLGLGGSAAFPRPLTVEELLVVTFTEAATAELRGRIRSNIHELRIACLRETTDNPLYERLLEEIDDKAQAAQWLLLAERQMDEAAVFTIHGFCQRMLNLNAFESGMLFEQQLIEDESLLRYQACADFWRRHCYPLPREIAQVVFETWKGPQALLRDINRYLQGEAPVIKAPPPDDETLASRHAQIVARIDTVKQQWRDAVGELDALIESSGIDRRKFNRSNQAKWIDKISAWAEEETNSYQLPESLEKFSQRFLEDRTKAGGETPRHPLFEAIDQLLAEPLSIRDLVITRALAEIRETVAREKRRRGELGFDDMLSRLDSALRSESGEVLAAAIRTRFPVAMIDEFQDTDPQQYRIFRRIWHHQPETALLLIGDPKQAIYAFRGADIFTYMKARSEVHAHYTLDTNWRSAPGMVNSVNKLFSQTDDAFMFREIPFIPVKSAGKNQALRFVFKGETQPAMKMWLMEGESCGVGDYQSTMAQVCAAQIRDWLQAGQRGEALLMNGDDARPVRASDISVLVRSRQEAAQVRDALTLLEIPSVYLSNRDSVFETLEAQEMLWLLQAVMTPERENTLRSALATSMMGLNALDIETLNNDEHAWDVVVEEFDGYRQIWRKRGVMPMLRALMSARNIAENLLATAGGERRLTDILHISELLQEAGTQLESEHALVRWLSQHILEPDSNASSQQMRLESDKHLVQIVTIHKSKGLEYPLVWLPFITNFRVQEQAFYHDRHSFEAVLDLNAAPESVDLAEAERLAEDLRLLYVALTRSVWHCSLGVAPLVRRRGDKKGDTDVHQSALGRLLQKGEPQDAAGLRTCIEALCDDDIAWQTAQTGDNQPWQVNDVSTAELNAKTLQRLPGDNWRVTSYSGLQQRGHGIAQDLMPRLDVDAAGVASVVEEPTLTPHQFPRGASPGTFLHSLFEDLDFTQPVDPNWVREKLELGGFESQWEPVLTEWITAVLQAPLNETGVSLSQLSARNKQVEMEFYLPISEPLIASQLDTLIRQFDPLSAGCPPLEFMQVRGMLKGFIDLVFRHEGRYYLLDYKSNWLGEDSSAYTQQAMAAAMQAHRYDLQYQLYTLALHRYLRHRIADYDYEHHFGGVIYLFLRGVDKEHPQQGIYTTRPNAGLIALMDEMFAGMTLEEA

[1] = biological target: ALK tyrosine kinase receptor (Homo sapiens, UniProt Q9UM73); type: functional;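 further: ALK tested as one member of a kinase panel screen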
SRSF protein kinase 1 = SRSF protein kinase 1 (Homo sapiens, UniProt Q96SB4); type: functional;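 further: measured as one member of a kinome-wide kinase profiling panel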
[2] = biological target: Ribosomal protein S6 kinase alpha-5 (Homo sapiens, UniProt O75582); type: functional
[3] = biological target: Mitogen-activated protein kinase 9 (Homo sapiens, UniProt P45984); type: functional;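 further: value from a kinome panel profiling assay, MAPK9 panel entry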
Chain of Mitogen-activated protein kinase 9 (P45984 whole entry): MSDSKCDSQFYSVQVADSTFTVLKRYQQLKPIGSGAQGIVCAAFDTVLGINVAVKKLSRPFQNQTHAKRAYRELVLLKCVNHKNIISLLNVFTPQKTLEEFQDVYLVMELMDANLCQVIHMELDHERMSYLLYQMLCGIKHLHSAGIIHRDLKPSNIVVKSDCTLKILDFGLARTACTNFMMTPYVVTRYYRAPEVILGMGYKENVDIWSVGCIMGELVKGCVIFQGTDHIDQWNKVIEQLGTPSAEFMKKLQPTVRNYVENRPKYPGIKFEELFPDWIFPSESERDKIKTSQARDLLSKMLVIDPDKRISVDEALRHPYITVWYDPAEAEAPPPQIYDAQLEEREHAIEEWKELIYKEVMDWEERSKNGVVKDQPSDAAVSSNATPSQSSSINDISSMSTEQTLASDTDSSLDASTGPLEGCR

Chain of SRSF protein kinase 1 (Q96SB4 whole entry): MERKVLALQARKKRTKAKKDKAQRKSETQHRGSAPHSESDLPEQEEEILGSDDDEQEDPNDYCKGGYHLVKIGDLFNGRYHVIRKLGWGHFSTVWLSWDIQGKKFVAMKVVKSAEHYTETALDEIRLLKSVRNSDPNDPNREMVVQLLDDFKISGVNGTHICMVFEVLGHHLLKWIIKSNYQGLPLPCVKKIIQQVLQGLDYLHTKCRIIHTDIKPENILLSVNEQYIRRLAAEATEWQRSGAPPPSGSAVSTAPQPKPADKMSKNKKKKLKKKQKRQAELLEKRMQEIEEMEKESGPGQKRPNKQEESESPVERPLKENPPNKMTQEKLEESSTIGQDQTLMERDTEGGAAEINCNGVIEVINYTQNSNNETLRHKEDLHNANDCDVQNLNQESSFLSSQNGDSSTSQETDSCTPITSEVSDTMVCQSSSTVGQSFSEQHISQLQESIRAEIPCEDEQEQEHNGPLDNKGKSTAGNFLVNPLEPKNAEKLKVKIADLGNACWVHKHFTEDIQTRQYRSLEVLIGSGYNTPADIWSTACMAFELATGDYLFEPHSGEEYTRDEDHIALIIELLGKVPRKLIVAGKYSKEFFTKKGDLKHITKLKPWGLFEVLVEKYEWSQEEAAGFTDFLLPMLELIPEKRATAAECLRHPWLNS
Chain of Ribosomal protein S6 kinase alpha-5 (O75582 whole entry): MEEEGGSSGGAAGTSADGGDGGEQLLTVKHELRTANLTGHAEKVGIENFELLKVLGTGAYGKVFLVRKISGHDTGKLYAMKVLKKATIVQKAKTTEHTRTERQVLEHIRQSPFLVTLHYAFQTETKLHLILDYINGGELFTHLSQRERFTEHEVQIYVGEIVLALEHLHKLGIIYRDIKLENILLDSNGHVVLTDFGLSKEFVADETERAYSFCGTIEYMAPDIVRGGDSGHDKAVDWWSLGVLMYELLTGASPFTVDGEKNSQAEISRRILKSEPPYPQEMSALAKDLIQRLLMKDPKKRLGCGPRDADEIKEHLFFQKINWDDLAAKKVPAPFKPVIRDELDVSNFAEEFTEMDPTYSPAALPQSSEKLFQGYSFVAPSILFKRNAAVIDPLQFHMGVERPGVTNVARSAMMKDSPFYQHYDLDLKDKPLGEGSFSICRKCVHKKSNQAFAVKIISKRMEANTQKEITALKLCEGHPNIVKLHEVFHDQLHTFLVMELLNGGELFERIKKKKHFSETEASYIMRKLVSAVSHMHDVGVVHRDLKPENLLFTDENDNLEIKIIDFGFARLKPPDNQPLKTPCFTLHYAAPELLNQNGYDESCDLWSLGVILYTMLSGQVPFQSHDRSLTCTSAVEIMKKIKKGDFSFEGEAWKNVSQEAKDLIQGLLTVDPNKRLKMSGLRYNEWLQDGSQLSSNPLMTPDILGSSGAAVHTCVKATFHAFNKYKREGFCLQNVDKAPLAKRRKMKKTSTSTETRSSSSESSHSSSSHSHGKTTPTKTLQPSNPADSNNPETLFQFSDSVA
Chain of ALK tyrosine kinase receptor (Q9UM73 whole entry): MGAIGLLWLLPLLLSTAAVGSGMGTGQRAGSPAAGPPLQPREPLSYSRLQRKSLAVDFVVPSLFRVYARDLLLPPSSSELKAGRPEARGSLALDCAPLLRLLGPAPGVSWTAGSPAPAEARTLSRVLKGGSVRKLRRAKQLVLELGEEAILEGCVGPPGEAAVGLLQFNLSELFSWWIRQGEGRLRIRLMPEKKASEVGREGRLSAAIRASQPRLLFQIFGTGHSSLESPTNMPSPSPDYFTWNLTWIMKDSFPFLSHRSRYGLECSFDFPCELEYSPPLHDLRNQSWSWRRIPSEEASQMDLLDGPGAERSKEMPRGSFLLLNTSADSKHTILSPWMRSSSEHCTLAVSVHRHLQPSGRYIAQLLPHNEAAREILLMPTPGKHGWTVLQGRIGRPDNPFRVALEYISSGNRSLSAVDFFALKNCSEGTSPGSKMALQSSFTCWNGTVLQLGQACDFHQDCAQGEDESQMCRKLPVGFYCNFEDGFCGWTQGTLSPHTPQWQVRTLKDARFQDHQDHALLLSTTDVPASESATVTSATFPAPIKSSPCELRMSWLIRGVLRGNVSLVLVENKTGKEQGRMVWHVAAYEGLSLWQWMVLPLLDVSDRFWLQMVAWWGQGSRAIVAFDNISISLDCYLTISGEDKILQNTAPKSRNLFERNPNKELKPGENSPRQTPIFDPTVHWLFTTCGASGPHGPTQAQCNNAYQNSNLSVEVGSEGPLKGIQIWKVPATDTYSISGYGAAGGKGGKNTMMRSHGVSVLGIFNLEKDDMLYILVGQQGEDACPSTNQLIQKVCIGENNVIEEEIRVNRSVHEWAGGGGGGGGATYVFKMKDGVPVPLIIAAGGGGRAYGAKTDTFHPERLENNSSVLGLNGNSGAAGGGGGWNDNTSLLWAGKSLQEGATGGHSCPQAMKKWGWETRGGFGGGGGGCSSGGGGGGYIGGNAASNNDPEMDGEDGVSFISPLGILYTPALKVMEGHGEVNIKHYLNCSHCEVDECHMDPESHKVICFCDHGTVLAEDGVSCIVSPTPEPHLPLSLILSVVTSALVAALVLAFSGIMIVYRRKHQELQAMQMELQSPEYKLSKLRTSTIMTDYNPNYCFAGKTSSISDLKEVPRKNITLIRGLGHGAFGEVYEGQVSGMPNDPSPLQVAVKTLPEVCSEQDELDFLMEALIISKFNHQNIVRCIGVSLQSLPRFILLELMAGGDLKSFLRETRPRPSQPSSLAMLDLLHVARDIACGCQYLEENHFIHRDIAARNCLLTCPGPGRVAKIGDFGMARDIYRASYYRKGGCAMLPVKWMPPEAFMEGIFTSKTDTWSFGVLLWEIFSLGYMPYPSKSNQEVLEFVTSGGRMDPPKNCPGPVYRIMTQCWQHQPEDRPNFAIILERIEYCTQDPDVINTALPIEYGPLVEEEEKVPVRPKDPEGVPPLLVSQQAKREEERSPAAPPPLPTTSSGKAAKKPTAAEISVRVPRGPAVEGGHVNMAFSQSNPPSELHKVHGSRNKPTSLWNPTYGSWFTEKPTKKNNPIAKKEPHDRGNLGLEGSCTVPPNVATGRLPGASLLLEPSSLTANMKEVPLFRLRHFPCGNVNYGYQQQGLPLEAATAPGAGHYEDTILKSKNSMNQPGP

Row | SMILES | IC50 (Exodeoxyribonuclease V) | Ki [1] | Ki (SRSF protein kinase 1) | Ki [2] | Ki [3]
1 | COc1ccc(-c2nnc(NC(=O)c3ccc(F)cc3)o2)cc1 | > 118 µM (inactive) | – | – | – | –
2 | CCn1c(-c2nonc2N)nc2cnc(Oc3cccc(NC(=O)c4ccc(OCCN5CCOCC5)cc4)c3)cc21 [GSK-269962A] | – | > 1.26 µM (inactive) | 7.94 µM (active) | 0.0631 µM (active) | > 3.98 µM (inactive)
